According to PubChem BioAssay (NCI):
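Method: 48-hour compound exposure of cells in 96-well plates, five concentrations, linear interpolation of endpoints. The concentration for 50% growth inhibition is given as GI50. TGI marks complete inhibition of growth.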

Key:
Assay in all cases: inhibition of tumour cell growth, NCI panel, 48 h
[1] = test system: A498 renal
[2] = test system: CCRF-CEM leukemia
[3] = test system: HS 578T breast
[4] = test system: HT29 colon
[5] = test system: MALME-3M melanoma
[6] = test system: MDA-MB-231 breast
[7] = test system: MOLT-4 leukemia
[8] = test system: NCI-H226 lung
[9] = test system: NCI-H522 lung
[10] = test system: OVCAR-3 ovarian
[11] = test system: SF-539 CNS
[12] = test system: SK-MEL-2 melanoma
[13] = test system: SK-MEL-28 melanoma
[14] = test system: SK-OV-3 ovarian
[15] = test system: SNB-75 CNS
[16] = test system: SW-620 colon
[17] = test system: HCC-2998 colon

| Structure (SMILES) | TGI [1] [µM] | TGI [2] [µM] | TGI [3] [µM] | TGI [4] [µM] | TGI [5] [µM] | TGI [6] [µM] | TGI [7] [µM] | TGI [8] [µM] | TGI [9] [µM] | TGI [10] [µM] | TGI [11] [µM] | TGI [12] [µM] | TGI [13] [µM] | TGI [14] [µM] | TGI [15] [µM] | TGI [16] [µM] | TGI [17] [µM] | GI50 [17] [µM] | GI50 [7] [µM] |
| --- | --- | --- | --- | --- | --- | --- | --- | --- | --- | --- | --- | --- | --- | --- | --- | --- | --- | --- | --- |
| CC1N=C(c2ccccc2)OC1=O (stereo unspecified) | > 100 | > 100 | > 100 | > 100 | > 100 | > 100 | > 100 | > 100 | > 100 | > 100 | > 100 | > 100 | > 100 | > 100 | > 100 | > 100 |  |  |  |
| C[C@]12CC[C@H](O)CC1=CC[C@@H]1[C@@H]2CC[C@]2(C)NC(=O)/C(=C\c3ccccc3)C[C@@H]12 | 29.2 | 48.5 |  | 31.5 | 30.3 | 38.9 | 98.5 | 34.3 | 23.1 | 26.2 | 30.2 | 31.8 | 32 | 35.5 | 48.5 | 34.6 | 30.7 |  |  |
| CN1N=C(c2ccccc2)c2cc(Cl)ccc2N=C1N/N=C/c1ccc(N(C)C)cc1 |  | > 100 |  | > 100 |  | > 100 | > 100 | > 100 | > 100 | > 100 | > 100 |  | > 100 | > 100 | > 100 | > 100 | > 100 |  |  |
| O=C(O)CCC(NC(=O)c1ccc(Oc2nc3ccccc3nc2-c2ccccc2)cc1)C(=O)O (stereo unspecified) | > 100 | > 100 |  | > 100 | > 100 | > 100 | > 100 | > 100 | > 100 | > 100 | > 100 | > 100 | > 100 | > 100 | > 100 | > 100 | > 100 |  |  |
| O=C(O)CCC(NC(=O)c1ccc(CNc2nc3cc(C(F)(F)F)ccc3nc2C(=O)O)cc1)C(=O)O (stereo unspecified) | > 100 | > 100 |  | > 100 | > 100 |  | > 100 | > 100 | > 100 | > 100 | > 100 | > 100 | > 100 | > 100 | > 100 | > 100 | > 100 |  |  |
| C/C(=C\CC/C=C(\C)CC/C=C(\C)CCC1SC1(C)C)CC/C=C(\C)CCC1OC1(C)C (stereo unspecified) | > 100 | > 100 |  | > 100 | > 100 |  | > 100 | > 100 | > 100 | > 100 | > 100 | > 100 | > 100 | > 100 | > 100 | > 100 | > 100 |  |  |
| CCOC(=O)/C(=C\c1c(C)[nH]c2ccccc12)P(=O)(OCC)OCC | > 100 |  | > 100 | > 100 | > 100 | > 100 | > 100 | > 100 | > 100 | > 100 | > 100 |  | > 100 | > 100 | > 100 | > 100 | > 100 |  |  |
| Cc1ccc(O)c(C2=NNC(c3cccc(Cl)c3)C2)c1 (stereo unspecified) |  | > 100 | 86.3 | > 100 | > 100 | > 100 | > 100 | > 100 | 53.6 | > 100 | > 100 | 94.1 |  | > 100 |  | > 100 |  |  |  |
| Cc1cc(S(=O)(=O)NC2=NCC(C)(C)CN2)c(S)cc1Cl | > 100 |  | 87.6 | 46.3 | > 100 | > 100 |  | 94.8 | 81.2 | > 100 | > 100 | > 100 | > 100 | > 100 | > 100 | 36.8 | > 100 |  |  |
| CC(C)(C)OC(=O)C1/C(=C/CBr)CN1C(=O)OC(C)(C)C (stereo unspecified) | 31.8 | 6.22 | 49.1 | > 100 | 35.4 |  | 26.1 |  |  | 28.6 | 35.9 |  | 46.9 | 38.2 |  | 19.4 | 33.1 |  |  |
| CN1CCN(Cc2ccccc2)CC1CC#N (stereo unspecified) | > 100 | > 100 |  | > 100 | > 100 | > 100 | > 100 | > 100 |  | > 100 | > 100 |  | > 100 | > 100 | > 100 | > 100 | > 100 |  |  |
| CC(=O)OC(C)c1cc2c(s1)C(=O)c1ccsc1C2=O (stereo unspecified) | 3.32 | 0.653 | 0.422 |  | 0.246 |  | 0.684 | 3.79 | 0.354 | 0.192 | 0.182 | 0.927 |  | 3.7 | 0.301 | 0.835 | 1.54 |  |  |
| CC1=NNC(=O)C1C1C=C(c2c[nH]c3ccccc23)OC1=O (stereo unspecified) | > 100 | > 100 | > 100 | > 100 | > 100 | > 100 | > 100 | > 100 | > 100 | > 100 | > 100 | > 100 | > 100 | > 100 | > 100 | > 100 |  |  |  |
| COC(=O)/C(=N\N)C(C(=O)C(=O)Nc1nc(=S)[nH][nH]1)c1nc2ccc([N+](=O)[O-])cc2[nH]c1=O (stereo unspecified) | > 100 | > 100 |  | > 100 | > 100 |  | > 100 | > 100 | > 100 | > 100 | > 100 | > 100 | > 100 | > 100 | > 100 | > 100 | > 100 |  |  |
| COc1cc([C@@H]2c3cc4c(cc3[C@@H](NC(=O)NO)[C@H]3COC(=O)[C@H]23)OCO4)cc(OC)c1O | > 100 | > 100 |  |  |  | > 100 | > 100 |  | > 100 |  | > 100 | > 100 |  |  |  | > 100 | > 100 | 4.06 | 4.87 |
